Results published in ChEMBL document CHEMBL1135808, “A new type of mixed anhydride and its applications to the synthesis of 7-substituted 8-chloro-5,5-dioxoimidazo[1,2-b][1,4,2]benzodithiazines with in vitro antitumor activity” (2002).

What was measured:
Hs-578T = experiment: In vitro growth inhibition against breast cancer HS 578T cell line was reported.; assay type: functional; details: Homo sapiens
MCF7 = experiment: In vitro total growth inhibition against breast cancer MCF 7 cell lines was reported.; assay type: functional; details: Homo sapiens, read-out: Log TGI (converted)
MDA-N = experiment: In vitro total growth inhibition against breast cancer MDA-N cell lines was reported.; assay type: functional; details: Homo sapiens, read-out: Log TGI (converted)
NCI/ADR-RES = experiment: In vitro total growth inhibition against breast cancer NCI/ADR-RES cell lines was reported.; assay type: functional; details: Homo sapiens, read-out: Log TGI (converted)
T47D = experiment: In vitro growth inhibition against breast cancer […] cell line was reported.; assay type: functional; details: Homo sapiens
COLO 205 = experiment: Log of molar concentration leading to 50% cell death against colon cancer COLO 205 cell line was reported; assay type: functional; details: Homo sapiens, read-out: Log LC50 (the source's name) (converted)
HCC 2998 = experiment: In vitro total growth inhibition against colon cancer HCC2998 cell lines was reported.; assay type: functional; details: Homo sapiens, read-out: Log TGI (converted)
HCT-116 = experiment: Log of molar concentration leading to 50% cell death against colon cancer HCT116 cell line was reported; assay type: functional; details: Homo sapiens, read-out: Log LC50 (the source's name) (converted)
SF-295 = experiment: In vitro total growth inhibition against CNS cancer SF-295 cell lines was reported.; assay type: functional; details: Homo sapiens, read-out: Log TGI (converted)
SF-539 = experiment: In vitro total growth inhibition against CNS cancer SF-539 cell lines was reported.; assay type: functional; details: Homo sapiens, read-out: Log TGI (converted)
SNB-75 [1] = experiment: In vitro growth inhibition against CNS cancer SNB-75 cell line was reported.; assay type: functional; details: Homo sapiens
SNB-75 [2] = experiment: In vitro total growth inhibition against CNS cancer SNB-75 cell lines was reported.; assay type: functional; details: Homo sapiens, read-out: Log TGI (converted)
SF-268 = experiment: In vitro growth inhibition against CNS cancer SF-268 cell line was reported.; assay type: functional; details: Homo sapiens
HCT-15 = experiment: In vitro total growth inhibition against colon cancer HCT-15 cell lines was reported.; assay type: functional; details: Homo sapiens, read-out: Log TGI (converted)
HT-29 [3] = experiment: In vitro total growth inhibition against colon cancer HT-29 cell lines was reported.; assay type: functional; details: Homo sapiens, read-out: Log TGI (converted)
KM12 = experiment: In vitro growth inhibition against colon cancer KM12 cell line was reported.; assay type: functional; details: Homo sapiens
SW-620 = experiment: In vitro growth inhibition against colon cancer SW620 cell line was reported.; assay type: functional; details: Homo sapiens
Tumor Cell line [4] = experiment: In vitro inhibition of 50% cell growth was reported as log of molar concentration for 60 cell lines.; assay type: functional; details: Homo sapiens
Tumor Cell line [5] = experiment: In vitro total growth inhibition for 50 cell lines was reported as log of molar concentration; assay type: functional, Homo sapiens
K562 = experiment: In vitro total growth inhibition against leukemia K-562 cell lines was reported.; assay type: functional; details: Homo sapiens, read-out: Log TGI (converted)
CCRF-CEM = experiment: In vitro total growth inhibition against leukemia CCRF cell lines was reported.; assay type: functional; details: Homo sapiens, read-out: Log TGI (converted)
HL-60 [6] = experiment: In vitro growth inhibition against leukemia HL-60(TB) cell line was reported.; assay type: functional; details: Homo sapiens
HL-60 [7] = experiment: In vitro total growth inhibition against leukemia HL-60(TB) cell lines was reported.; assay type: functional; details: Homo sapiens, read-out: Log TGI (converted)
MOLT-4 [8] = experiment: In vitro growth inhibition against leukemia MOLT-4 cell line was reported.; assay type: functional; details: Homo sapiens
MOLT-4 [9] = experiment: In vitro total growth inhibition against leukemia MOLT-4 cell lines was reported.; assay type: functional; details: Homo sapiens, read-out: Log TGI (converted)
SK-MEL-2 = experiment: In vitro growth inhibition against melanoma SK-MEL-2 cell line was reported.; assay type: functional; details: Homo sapiens
UACC-62 [10] = experiment: In vitro growth inhibition against melanoma UACC-62 cell line was reported.; assay type: functional; details: Homo sapiens
HOP-62 = experiment: In vitro total growth inhibition against non-small-cell lung cancer HOP-62 cell lines was reported.; assay type: functional; details: Homo sapiens, read-out: Log TGI (converted)
NCI-H226 [11] = experiment: In vitro total growth inhibition against non-small-cell lung cancer NCI-H226 cell lines was reported.; assay type: functional; details: Homo sapiens, read-out: Log TGI (converted)
NCI-H322M = experiment: Log of molar concentration leading to 50% cell death against non-small-cell lung cancer NCI-H322M cell line was reported; assay type: functional; details: Homo sapiens, read-out: Log LC50 (the source's name) (converted)
OVCAR-4 [12] = experiment: In vitro growth inhibition against ovarian cancer OVCAR-4 cell line was reported.; assay type: functional; details: Homo sapiens
OVCAR-5 = experiment: In vitro total growth inhibition against ovarian cancer OVCAR-5 cell lines was reported.; assay type: functional; details: Homo sapiens, read-out: Log TGI (converted)
OVCAR-8 [13] = experiment: In vitro growth inhibition against ovarian cancer OVCAR-8 cell line was reported.; assay type: functional; details: Homo sapiens
OVCAR-8 [14] = experiment: In vitro total growth inhibition against ovarian cancer OVCAR-8 cell lines was reported.; assay type: functional; details: Homo sapiens, read-out: Log TGI (converted)
DU-145 [15] = experiment: In vitro growth inhibition against prostate cancer […] cell line was reported.; assay type: functional; details: Homo sapiens
CAKI-1 = experiment: In vitro growth inhibition against renal cancer CAKI-1 cell line was reported.; assay type: functional; details: Homo sapiens
RXF 393 [16] = experiment: In vitro growth inhibition against renal cancer RXF 393 cell line was reported.; assay type: functional; details: Homo sapiens
RXF 393 [17] = experiment: In vitro total growth inhibition against renal cancer RXF 393 cell lines was reported.; assay type: functional; details: Homo sapiens, read-out: Log TGI (converted)
SN12C = experiment: In vitro growth inhibition against renal cancer SN12C cell line was reported.; assay type: functional; details: Homo sapiens
TK-10 [18] = experiment: In vitro growth inhibition against renal cancer TK-10 cell line was reported.; assay type: functional; details: Homo sapiens
TK-10 [19] = experiment: In vitro total growth inhibition against renal cancer TK-10 cell lines was reported.; assay type: functional; details: Homo sapiens, read-out: Log TGI (converted)
UO-31 [20] = experiment: In vitro growth inhibition against renal cancer UO-31 cell line was reported.; assay type: functional; details: Homo sapiens
HL-60 [21] = experiment: Log of molar concentration leading to 50% cell death against leukemia HL-60(TB) cell line was reported; assay type: functional; details: Homo sapiens, read-out: Log LC50 (the source's name) (converted)
OVCAR-4 [22] = experiment: Log of molar concentration leading to 50% cell death against ovarian cancer OVCAR-4 cell line was reported; assay type: functional; details: Homo sapiens, read-out: Log LC50 (the source's name) (converted)
MDA-MB-231 = experiment: Log of molar concentration leading to 50% cell death against breast cancer MDA-MB-231/ATCC cell line was reported; assay type: functional; details: Homo sapiens, read-out: Log LC50 (the source's name) (converted)
UACC-62 [23] = experiment: In vitro total growth inhibition against melanoma UACC-62 cell lines was reported.; assay type: functional; details: Homo sapiens, read-out: Log TGI (converted)
M14 = experiment: Log of molar concentration leading to 50% cell death against melanoma M14 cell line was reported; assay type: functional; details: Homo sapiens, read-out: Log LC50 (the source's name) (converted)
SK-MEL-5 = experiment: Log of molar concentration leading to 50% cell death against melanoma SK-MEL-5 cell line was reported; assay type: functional; details: Homo sapiens, read-out: Log LC50 (the source's name) (converted)
DU-145 [24] = experiment: Log of molar concentration leading to 50% cell death against prostate cancer […] cell line was reported; assay type: functional; details: Homo sapiens, read-out: Log LC50 (the source's name) (converted)
NCI-H46 = experiment: In vitro growth inhibition against non-small-cell lung cancer […] cell line was reported.; assay type: functional; details: Homo sapiens
NCI-H226 [25] = experiment: In vitro growth inhibition against non-small-cell lung cancer NCI-H226 cell line was reported.; assay type: functional; details: Homo sapiens
TK-10 [26] = experiment: Log of molar concentration leading to 50% cell death against renal cancer TK-10 cell line was reported; assay type: functional; details: Homo sapiens, read-out: Log LC50 (the source's name) (converted)
U-251 = experiment: Log of molar concentration leading to 50% cell death against CNS cancer U251 cell line was reported; assay type: functional; details: Homo sapiens, read-out: Log LC50 (the source's name) (converted)
OVCAR-3 = experiment: In vitro growth inhibition against ovarian cancer OVCAR-3 cell line was reported.; assay type: functional; details: Homo sapiens
ACHN = experiment: In vitro growth inhibition against renal cancer ACHN cell line was reported.; assay type: functional; details: Homo sapiens
RPMI-8226 = experiment: In vitro growth inhibition against leukemia […] cell line was reported.; assay type: functional; details: Homo sapiens
LOX IMVI = experiment: In vitro growth inhibition against melanoma LOX IMVI cell line was reported.; assay type: functional; details: Homo sapiens
HT-29 [27] = experiment: In vitro growth inhibition against colon cancer HT-29 cell line was reported.; assay type: functional; details: Homo sapiens
UO-31 [28] = experiment: In vitro total growth inhibition against renal cancer UO-31 cell lines was reported.; assay type: functional; details: Homo sapiens, read-out: Log TGI (converted)
A498 = experiment: In vitro total growth inhibition against renal cancer A-498 cell lines was reported.; assay type: functional; details: Homo sapiens, read-out: Log TGI (converted)
OVCAR-8 [29] = experiment: Log of molar concentration leading to 50% cell death against ovarian cancer OVCAR-8 cell line was reported; assay type: functional; details: Homo sapiens, read-out: Log LC50 (the source's name) (converted)

SMILES: O=C(Nc1nccs1)c1cc2c(cc1Cl)Sc1nccn1S2(=O)=O
- GI50 (Hs-578T): 28.2 µM
- TGI (MCF7): 20 µM
- TGI (MDA-N): 33.1 µM
- TGI (NCI/ADR-RES): 44.7 µM
- GI50 (T47D): 23.4 µM
- CC50 (COLO 205): 56.2 µM
- TGI (HCC 2998): 29.5 µM
- CC50 (HCT-116): 55 µM
- TGI (SF-295): 34.7 µM
- TGI (SF-539): 37.2 µM
- GI50 (SNB-75 [1]): 18.6 µM
- TGI (SNB-75 [2]): 35.5 µM
- GI50 (SF-268): 19.1 µM
- TGI (HCT-15): 33.9 µM
- TGI (HT-29 [3]): 46.8 µM
- GI50 (KM12): 12.3 µM
- GI50 (SW-620): 17 µM
- GI50 (Tumor Cell line [4]): 28.2 µM
- Log GTI (Tumor Cell line [5]): -4.04
- TGI (K562): 46.8 µM
- TGI (CCRF-CEM): 24.5 µM
- GI50 (HL-60 [6]): 13.5 µM
- TGI (HL-60 [7]): 30.9 µM
- GI50 (MOLT-4 [8]): 19.1 µM
- TGI (MOLT-4 [9]): 41.7 µM
- GI50 (SK-MEL-2): 17.4 µM
- GI50 (UACC-62 [10]): 14.5 µM
- TGI (HOP-62): 30.2 µM
- TGI (NCI-H226 [11]): 35.5 µM
- CC50 (NCI-H322M): 64.6 µM
- GI50 (OVCAR-4 [12]): 16.2 µM
- TGI (OVCAR-5): 45.7 µM
- GI50 (OVCAR-8 [13]): 17.4 µM
- TGI (OVCAR-8 [14]): 37.2 µM
- GI50 (DU-145 [15]): 16.2 µM
- GI50 (CAKI-1): 8.51 µM
- GI50 (RXF 393 [16]): 19.1 µM
- TGI (RXF 393 [17]): 39.8 µM
- GI50 (SN12C): 17 µM
- GI50 (TK-10 [18]): 19.1 µM
- TGI (TK-10 [19]): 34.7 µM
- GI50 (UO-31 [20]): 4.37 µM
- CC50 (HL-60 [21]): 70.8 µM
- CC50 (OVCAR-4 [22]): 91.2 µM
- CC50 (MDA-MB-231): 67.6 µM
- TGI (UACC-62 [23]): 27.5 µM
- CC50 (M14): 67.6 µM
- CC50 (SK-MEL-5): 55 µM
- CC50 (DU-145 [24]): 27.5 µM
- GI50 (NCI-H46): 15.8 µM
- GI50 (NCI-H226 [25]): 19.5 µM
- CC50 (TK-10 [26]): 63.1 µM
- CC50 (U-251): 56.2 µM
- GI50 (OVCAR-3): 15.1 µM
- GI50 (ACHN): 17.8 µM
- GI50 (RPMI-8226): 9.33 µM
- GI50 (LOX IMVI): 11 µM
- GI50 (HT-29 [27]): 20 µM
- TGI (UO-31 [28]): 14.8 µM
- TGI (A498): 34.7 µM
- CC50 (OVCAR-8 [29]): 79.4 µM
